pIC50, pKd: −log10 of the molar value.
Assays:
[1] = target: human RORγt ligand binding domain (RORγt LBD) (Homo sapiens (Human), UniProt P51449); assay: RORγt ThermoFluor® assay (thermal shift binding); settings: read-out: ThermoFluor® Assay, Kd
In short: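 His-tagged human RORγt LBD (0.065 mg/mL) with 60 μM 1,8-ANS in 100 mM Hepes pH 7.0, 10 mM NaCl, 2.5 mM GSH, 0.002% Tween-20 was heated at 1 °C/min.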

full-length human RORγt [2] = target: T1, full-length human RORγt (Homo sapiens (Human), UniProt P51449); assay: RORγt (full-length human) reporter assay, Conditions A; type: cell-based; settings: Conditions A; for pIC50: read-out: RORγt (FL) Reporter Assay A, IC50; for inhibition at 6 µM: read-out: RORγt (FL) Reporter Assay A, % inhibition @ 6 μM
Text: RORγt (Full-Length Human) Reporter Assay:
Cells used in this assay were transiently co-transfected with three different plasmids, one expressing the GAL4-DNA binding domain (DBD)-RORγt fusion protein under control of a CMV promoter (NH2-Gal4-DBD:RORC-COOH in pCMV-BD, Stratagene #211342), and two reporter plasmids—the firefly luciferase reporter under control of a GAL4 promoter (pFR-Luc 2×GAL4) and Renilla luciferase reporter under control of CMV promoter (pRL-CMV, Promega # E2261). The full-length coding sequence was used for human RORγt, i.e., nucleotides 142-1635 of human RORγt, transcript variant 2, NCBI Accession: NM_001001523.1 (SEQ ID NO:1). HEK293T cells were plated at 35000 per well in 96-well plate in medium of MEM with 8.6% FBS. After 18-22 hours incubation, the transfection was carried out by using a PEI solution with 170.5 ng total DNA/well (50 ng pCMV-BD-ROR plus 20 ng of pFR-Luc reporter and 0.5 ng of pRL-CMV reporter plus 100 ng Carrier DNA (Clontech #630440) for each well). 4-6 hours after transfection, cells were treated with compounds for overnight in the medium with final concentration of FBS 1.1% and DMSO 0.1%. After overnight (16 to 20 hours) incubation, media were removed and cells were lysed with 20 μL 1× Passive Lysis Buffer (Promega) for 10-15 minutes. Luminescence was measured using a BMG LUMIstar OPTIMA plate reader, after addition of 75 μL/well firefly luciferase buffer, followed by 75 μL/well Renilla luciferase buffer. To calculate the effect of compounds on RORγt activity, firefly values were normalized against values of DMSO only and values of reference compound at saturating concentration, then further normalized against Renilla signals. IC50s were generated by plotting final Renilla normalized data against compound concentration and percent inhibition was calculated against DMSO control.

full-length human RORγt [3] = target: T1, full-length human RORγt; assay: RORγt (full-length human) reporter assay, Conditions B or C; type: cell-based; settings: for inhibition at 3 µM: at 3 μM compound concentration, read-out: RORγt (FL) Reporter Assay B or C, % inhibition
In short: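 HEK293T cells transiently co-transfected with GAL4-DBD–full-length human RORγt (nt 142-1635, NM_001001523.1) plus GAL4-firefly and CMV-Renilla luciferase reporters; compounds added 4-6 h post-transfection for 16-20 h in 1.3% FBS, 0.1% DMSO. Firefly signal normalized to DMSO and saturating reference compound, then to Renilla; IC50 from concentration plots.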

[4] = Conditions B or C, read-out: RORγt (FL) Reporter Assay B or C, IC50
[5] = read-out: RORγt (FL) Reporter Assay B or C, IC50

T1 sequence (P51449 other isoform, or with tags, fused parts or gaps): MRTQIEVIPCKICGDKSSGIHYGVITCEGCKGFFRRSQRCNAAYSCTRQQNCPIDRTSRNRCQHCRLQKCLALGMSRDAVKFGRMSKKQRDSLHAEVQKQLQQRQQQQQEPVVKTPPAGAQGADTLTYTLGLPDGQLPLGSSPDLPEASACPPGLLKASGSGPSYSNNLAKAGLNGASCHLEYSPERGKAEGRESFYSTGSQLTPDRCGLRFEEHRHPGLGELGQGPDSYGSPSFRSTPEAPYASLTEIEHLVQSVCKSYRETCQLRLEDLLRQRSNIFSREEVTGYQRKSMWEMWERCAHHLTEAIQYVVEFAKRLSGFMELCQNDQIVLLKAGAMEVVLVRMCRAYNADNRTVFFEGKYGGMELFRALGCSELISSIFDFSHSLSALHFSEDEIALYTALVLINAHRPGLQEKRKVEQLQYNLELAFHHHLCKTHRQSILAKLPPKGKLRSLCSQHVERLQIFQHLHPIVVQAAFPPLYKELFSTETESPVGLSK
Chain of human RORγt ligand binding domain (RORγt LBD) (P51449 other isoform, or with tags, fused parts or gaps): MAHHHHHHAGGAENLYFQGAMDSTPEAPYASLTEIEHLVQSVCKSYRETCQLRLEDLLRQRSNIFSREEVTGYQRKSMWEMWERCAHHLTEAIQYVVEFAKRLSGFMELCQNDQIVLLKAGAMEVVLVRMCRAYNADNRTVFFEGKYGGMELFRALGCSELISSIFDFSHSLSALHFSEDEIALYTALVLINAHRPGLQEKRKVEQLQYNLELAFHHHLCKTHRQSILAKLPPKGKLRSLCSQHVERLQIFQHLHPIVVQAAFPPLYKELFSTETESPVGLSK

SMILES | pKd [1] | pIC50 (full-length human RORγt [2]) | inhibition at 6 µM (full-length human RORγt [2]) | further results
CC(C)(O)CNC(=O)c1nc(C(=O)N2CCC(F)CC2)c(-c2cnc(NC3CCC3)cc2C(F)(F)F)s1 [Example 9, 5-(6-(Cyclobutylamino)-4-(trifluoromethyl)pyridin-3-yl)-4-(4-fluoropiperidine-1-carbonyl)-N-(2-hydroxy-2-methylpropyl)thiazole-2-carboxamide] | 7.11 | 6.48 | 104% | –
CC(C)(O)CNC(=O)c1nc(C(=O)N2CCC(F)CC2)c(-c2cnc(NC3CC(F)(F)C3)c(C(F)(F)F)c2)s1 [Example 16, 5-(6-((3,3-Difluorocyclobutyl)amino)-5-(trifluoromethyl)pyridin-3-yl)-4-(4-fluoropiperidine-1-carbonyl)-N-(2-hydroxy-2-methylpropyl)thiazole-2-carboxamide] | 6.89 | 6.33 | 105% | –
CC(C)(O)CNC(=O)c1nc(C(=O)N2CCC(F)CC2)c(-c2cnc(NC3CC4(CCC4)C3)cc2C(F)(F)F)s1 [Example 24, 4-(4-Fluoropiperidine-1-carbonyl)-N-(2-hydroxy-2-methylpropyl)-5-(6-(spiro[3.3]heptan-2-ylamino)-4-(trifluoromethyl)pyridin-3-yl)thiazole-2-carboxamide] | 7.70 | 7.01 | 107% | –
COc1cc(-c2sc(C(=O)NCC(C)(C)O)nc2C(=O)N2CCC(F)CC2)cnc1NC1CCCCC1 [Example 59, 5-(6-(Cyclohexylamino)-5-methoxypyridin-3-yl)-4-(4-fluoropiperidine-1-carbonyl)-N-(2-hydroxy-2-methylpropyl)thiazole-2-carboxamide] | – | 6.15 | 88% | –
CC[C@H](Nc1cc(C(F)F)c(-c2sc(C(=O)N[C@H]3COC[C@@H]3O)nc2C(=O)N2CCC[C@@H]2C)cn1)C(F)(F)F [Example 239, 5-[4-(Difluoromethyl)-6-[[(1S)-1-(trifluoromethyl)propyl]amino]-3-pyridyl]-N-[(3S,4R)-4-hydroxytetrahydrofuran-3-yl]-4-[(2S)-2-methylpyrrolidine-1-carbonyl]thiazole-2-carboxamide] | 8.27 | – | – | RORγt (FL) Reporter Assay B or C, % inhibition (value marked *) (full-length human RORγt [3]; Conditions B or C, marked *: footnote not given): 105* %; pIC50 (full-length human RORγt [3]; [4]): 7.72
O=C(N[C@H]1CC[C@@H]1O)c1nc(C(=O)N2C3CCC2CC3)c(-c2cnc(N[C@@H](C3CC3)C(F)(F)F)cc2C(F)F)s1 (relative stereo) [Example 444, 4-((1s,4s)-7-Azabicyclo[2.2.1]heptane-7-carbonyl)-5-(6-(((S)-1-cyclopropyl-2,2,2-trifluoroethyl)amino)-4-(difluoromethyl)pyridin-3-yl)-N-((1S*,2S*)-2-hydroxycyclobutyl)thiazole-2-carboxamide] | 8.64 | – | – | inhibition at 3 µM (full-length human RORγt [3]): 102%; pIC50 (full-length human RORγt [3]; [5]): 8.35
O=C(N[C@@H]1CC[C@@H](O)C1)c1nc(C(=O)N2C3CCC2CC3)c(-c2cnc(N[C@@H](C3CC3)C(F)(F)F)cc2C(F)F)s1 [Example 437, 4-((1s,4s)-7-Azabicyclo[2.2.1]heptane-7-carbonyl)-5-[6-[[(1S)-1-cyclopropyl-2,2,2-trifluoro-ethyl]amino]-4-(difluoromethyl)-3-pyridyl]-N-[(1R,3R)-3-hydroxycyclopentyl]thiazole-2-carboxamide] | 9.36 | – | – | pIC50 (full-length human RORγt [3]; RORγt (FL) Reporter Assay B or C, IC50): 7.80; inhibition at 3 µM (full-length human RORγt [3]): 90%
CC[C@H](Nc1cc(C(F)F)c(-c2sc(C(=O)N[C@@H]3CC[C@@H](O)C3)nc2C(=O)N2CCC[C@@H]2C)cn1)C(F)(F)F [Example 399, 5-[4-(Difluoromethyl)-6-[[(1S)-1-(trifluoromethyl)propyl]amino]-3-pyridyl]-N-[(1R,3R)-3-hydroxycyclopentyl]-4-[(2S)-2-methylpyrrolidine-1-carbonyl]thiazole-2-carboxamide] | 8.92 | – | – | inhibition at 3 µM (full-length human RORγt [3]): 100%; pIC50 (full-length human RORγt [3]; [5]): 7.60
CC[C@H](Nc1cc(C(F)F)c(-c2sc(C(=O)N[C@@H]3CC[C@@H](O)C3)nc2C(=O)N2C3CCC2CC3)cn1)C(F)(F)F [Example 152] | 9.06 | – | – | pIC50 (full-length human RORγt [3]; [4]): 7.96; inhibition at 6 µM (full-length human RORγt [3]; read-out: RORγt (FL) Reporter Assay B or C, % inhibition @ 6 μM, Conditions B or C, @ 6 μM): 102%

The next lines start with results.

pKd [1] | pIC50 (full-length human RORγt [2]) | inhibition at 6 µM (full-length human RORγt [2]) | SMILES | further results
7.52 | 7.10 | 96% | CC(C)(O)CNC(=O)c1nc(C(=O)N2CCC(F)CC2)c(-c2cnc(NC3CCCC(F)(F)C3)cc2C(F)(F)F)s1 (stereo not shown) [Example 23, 5-(6-((3,3-Difluorocyclohexyl)amino)-4-(trifluoromethyl)pyridin-3-yl)-4-(4-fluoropiperidine-1-carbonyl)-N-(2-hydroxy-2-methylpropyl)thiazole-2-carboxamide] | –
6.43 | 5.96 | 70% | CC(C)(O)CNC(=O)c1nc(C(=O)N2CCC(F)CC2)c(-c2cnc(NC3CCCCC3)c(C#N)c2C(F)(F)F)s1 [Example 68, 5-(5-Cyano-6-(cyclohexylamino)-4-(trifluoromethyl)pyridin-3-yl)-4-(4-fluoropiperidine-1-carbonyl)-N-(2-hydroxy-2-methylpropyl)thiazole-2-carboxamide] | –
7.28 | 6.40 | 98% | Cc1cc(NC2CCCCC2)ncc1-c1sc(C(=O)NCC(C)(C)O)nc1C(=O)N1CCC(F)CC1 [Example 67, 5-(6-(Cyclohexylamino)-4-methylpyridin-3-yl)-4-(4-fluoropiperidine-1-carbonyl)-N-(2-hydroxy-2-methylpropyl)thiazole-2-carboxamide] | –
8.12 | 7.41 | – | CC(C)(O)CCNC(=O)c1nc(C(=O)N2CCC(F)(F)CC2)c(-c2cnc(NC3CCCCC3)cc2C(F)(F)F)s1 [Example 15, 5-(6-(Cyclohexylamino)-4-(trifluoromethyl)pyridin-3-yl)-4-(4,4-difluoropiperidine-1-carbonyl)-N-(3-hydroxy-3-methylbutyl)thiazole-2-carboxamide] | RORγt (FL) Reporter Assay A, % inhibition (value marked **) (full-length human RORγt [2]; marked **: footnote not shown): 105** %
– | 6.68 | 103% | CC(C)c1cc(NC2CCCCC2)ncc1-c1sc(C(=O)NCC(C)(C)O)nc1C(=O)N1CCC(F)CC1 [Example 65, 5-(6-(Cyclohexylamino)-4-isopropylpyridin-3-yl)-4-(4-fluoropiperidine-1-carbonyl)-N-(2-hydroxy-2-methylpropyl)thiazole-2-carboxamide] | –
– | – | 100% | CC(C)(O)CNC(=O)c1nc(C(=O)N2CCC(F)CC2)c(-c2cnc(NC3CC(F)(F)C3)cc2C(F)(F)F)s1 [Example 21, 5-(6-((3,3-Difluorocyclobutyl)amino)-4-(trifluoromethyl)pyridin-3-yl)-4-(4-fluoropiperidine-1-carbonyl)-N-(2-hydroxy-2-methylpropyl)thiazole-2-carboxamide] | –
– | 6.60 | 96% | COc1cc(NC2CCCCC2)ncc1-c1sc(C(=O)NCC(C)(C)O)nc1C(=O)N1CCC(F)CC1 [Example 63, 5-(6-(Cyclohexylamino)-4-methoxypyridin-3-yl)-4-(4-fluoropiperidine-1-carbonyl)-N-(2-hydroxy-2-methylpropyl)thiazole-2-carboxamide] | –
8.29 | – | – | C[C@H](NC(=O)c1nc(C(=O)N2CCC[C@@H]2C)c(-c2cnc(N[C@H](C)C(F)(F)F)cc2C(F)F)s1)C(C)(C)O [Example 304, 5-(4-(Difluoromethyl)-6-(((R)-1,1,1-trifluoropropan-2-yl)amino)pyridin-3-yl)-N—((S)-3-hydroxy-3-methylbutan-2-yl)-4-((S)-2-methylpyrrolidine-1-carbonyl)thiazole-2-carboxamide] | inhibition at 3 µM (full-length human RORγt [3]): 102%; pIC50 (full-length human RORγt [3]; [5]): 7.04

Reference: US10975068B2, “6-aminopyridin-3-yl thiazoles as modulators of RORγT” (Janssen Pharmaceutica NV, priority 2016, dated 2021)
